Test results: patent publication US10307407B2, “9H-pyrimido [4,5-B] indoles as BET bromodomain inhibitors” (THE REGENTS OF THE UNIVERSITY OF MICHIGAN, priority 2015, dated 2019)
Each block holds one compound with its values, some of them ahead of it.

Key:
recombinant BRD4 BD1 = molecular target: T1, recombinant BRD4 BD1 (Homo sapiens, UniProt O60885); assay: Competitive fluorescence-polarization (FP) binding assay, BRD4 BD1; settings: FAM labeled probe 1.5 nM, protein 10 nM, pH 6.5
T1 construct: recombinant BRD4 BD1 and BRD4 BD2 proteins
Experimental: (§1) Fluorescence Polarization (FP) competitive binding studies were carried out using a FAM labeled fluorescent probe (ZBA248 or BRD-1F) to determine binding affinities of representative Compounds of the Disclosure for recombinant BRD4 BD1 and BRD4 BD2 proteins. For example, equilibrium dissociation constants (Kd) values of ZBA248 to these six proteins were determined from protein saturation experiments by monitoring the total fluorescence polarization of mixtures composed with the fluorescent probe at a fixed concentration and proteins with increasing concentrations up to full saturation. Serial dilutions of testing protein were mixed with ZBA248 to a final volume of 200 μl in the assay buffer. In order to achieve large dynamic rages, particularly for BD1 bromodomains, 100 mM phosphate buffer (pH=6.5, 0.01% Triton X-100 (Sigma, 282103) being added right before assays) was used as the assay buffer. Final ZBA248 concentration was 1.5 nM for all proteins. Plates were incubated at room temperature for 30 minutes with gentle shaking to assure equilibrium. FP values in millipolarization units (mP) were measured using the Infinite M-1000 plate reader (Tecan U.S., Research Triangle Park, N.C.) in Microfluor 1 96-well, black, round-bottom plates (Thermo Scientific, Waltham, Mass.) at an excitation wavelength of 485 nm and an emission wavelength of 530 nm. Kd values of ZBA248 were calculated by fitting the sigmoidal dose-dependent FP increases as a function of protein concentrations using Graphpad Prism 6.0 software (Graphpad Software, San Diego, Calif.).
(§2) The IC50 and Ki values of representative Compounds of the Disclosure were determined in a competitive binding experiment as described above. Mixtures of 10 μl of the tested compounds in assay buffer with 40% Ethylene Glycol and 190 μl of preincubated protein/probe complex solution in the assay buffer (100 mM potassium phosphate, pH 6.5, 0.01% Triton X-100) were added into assay plates which were incubated at room temperature for 30 minutes with gentle shaking. Final concentrations of proteins were 10 and 6 nM in assays for BD1 and BD2 of BRD4, respectively. Final probe concentration is 1.5 nM in all assays. Negative controls containing protein/probe complex only (equivalent to 0% inhibition), and positive controls containing only free probes (equivalent to 100% inhibition), were included in each assay plate. FP values were measured as described above. IC50 values were determined by nonlinear regression fitting of the competition curves. Instead of being calculated from IC50 values as described before, Ki values of competitive inhibitors were obtained directly by nonlinear regression fitting as well, based upon the Kd values of the probe to different proteins, and concentrations of the proteins and probes in the competitive assays (Wang, FEBS Lett. 360; 111 (1995); Zhang et al., Analytical Biochemistry, 331; 138 (2004)).
(§3) Binding affinities of representative Compounds of the Disclosure to BRD4 BD1 and BRD4 BD2 proteins in competitive, fluorescence-polarization assays are presented in Table 2.

recombinant BRD4 BD2 = molecular target: T2, recombinant BRD4 BD2 (Homo sapiens, UniProt O60885); assay: Competitive fluorescence-polarization (FP) binding assay, BRD4 BD2; settings: FAM labeled probe 1.5 nM, protein 6 nM, pH 6.5
T2 construct: recombinant BRD4 BD1 and BRD4 BD2 proteins
Experimental: as §1, §2, §3

LNCaP cells = assay: Cell growth inhibition, 4-day proliferation assay, LNCaP; format: cell-based; settings: Homo sapiens, 96 h, prostate cancer cell line, 4 days treatment
Experimental: (§4) The effect of representative Compounds of the Disclosure on cell viability was determined in a 4-day proliferation assay. Cells were maintained in the appropriate culture medium with 10% FBS at 37° C. and an atmosphere of 5% CO2. All the cell lines were used within three months of thawing fresh vials.
(§5) Cells were seeded in 96-well flat bottom (Corning COSTAR, Corning, NY, cat#3595) or white opaque cell culture plates (BD Falcon, cat#353296) at a density of 3,000-10,000 cells/well in 75 μl of culture medium. Compounds were serially diluted in the appropriate medium, and 75 μl of the diluted compounds were added to the appropriate wells of the cell plate. After the addition of compounds, the cells were incubated at 37° C. in an atmosphere of 5% CO2 for 4 days. Cell viability was determined using the CellTiter-Glo® Luminescent Cell Viability Assay Kit (Promega, Madison, Wis.) for RS4-11 and MV4-11 cells and WST (2-(2-methoxy-4-nitrophenyl)-3-(4-nitrophenyl)-5-(2,4-disulfophenyl)-2H-tetrazolium, monosodium salt) Cell Counting-8 Kit (Dojindo Molecular Technologies, Inc., Rockville, Md.) for MDA-MB-231 cells according to the manufacturers' instructions.
(§6) Cell growth inhibition of representative Compounds of the Disclosure in representative breast cancer (MDA-MB-231), acute leukemia (MV4-11), and prostate cancer cell lines (LNCaP), as determined by a WST assay, are presented in Table 3. Cells were treated with each inhibitor for 4 days.

MDA-MB-231 cells = assay: Cell growth inhibition, 4-day proliferation assay (WST), MDA-MB-231; format: cell-based; settings: Homo sapiens, MDA-MB-231, 96 h, breast cancer cell line, 4 days treatment
Experimental: as §4, §5
For WST assay (MDA-MB-231 cells), WST-8 reagent was added to each well at a final concentration of 10% (v/v), and then the plates were incubated at 37° C. for 1-2 hours for color development. The absorbance was measured at 450 nm using a SPECTRAmax PLUS plate reader (Molecular Devices, Sunnyvale, Calif.). The readings were normalized to the DMSO-treated cells and the half maximal inhibitory concentration (IC50) was calculated by nonlinear regression (four parameters sigmoid fitted with variable slope, least squares fit, and no constraint) analysis using the GraphPad Prism 5 software (GraphPad Software, La Jolla, Calif.).
as §6

MV4-11 cells = assay: Cell growth inhibition, 4-day proliferation assay, MV4-11; format: cell-based; settings: Homo sapiens, MV4-11, 96 h, acute leukemia cell line, 4 days treatment
Experimental: as §4, §5
For CellTiter-Glo assay (RS4-11 and MV4-11 cells), 100 μl of CellTiter-Glo® Reagent was added to each well, and then the plates were incubated at room temperature for 10-20 minutes. The luminescent signal was measured using a Tecan Infinite M1000 multimode microplate reader (Tecan, Morrisville, N.C.). The readings were normalized to the DMSO-treated cells and the IC50 was calculated by nonlinear regression (four parameters sigmoid fitted with variable slope, least squares fit, and no constraint) analysis using the GraphPad Prism 5 software.
as §6

Structure (SMILES): COc1cc2c(cc1Br)[nH]c1ncnc(Nc3cc(C4CC4)nn3C)c12 [Cpd. No. 1, 7-Bromo-N-(3-cyclopropyl-1-methyl-1H-pyrazol-5-yl)-6-methoxy-9H-pyrimido[4,5-b]indol-4-amine]
- IC50 (recombinant BRD4 BD1): > 1000 nM
- IC50 (recombinant BRD4 BD2): > 1000 nM

Structure (SMILES): COc1cc2c(cc1-c1c(C)noc1C)[nH]c1nc(N)nc(Nc3cc(C4CC4)nn3C(C)C)c12 [Cpd. No. 2, N4-(3-cyclopropyl-1-isopropyl-1H-pyrazol-5-yl)-7-(3,5-dimethylisoxazol-4-yl)-6-methoxy-9H-pyrimido[4,5-b]indole-2,4-diamine]
- IC50 (recombinant BRD4 BD1): 1 nM
- IC50 (LNCaP cells): 3 nM
- IC50 (recombinant BRD4 BD2): 2.1 nM
- IC50 (MDA-MB-231 cells): 46 nM

Structure (SMILES): COc1cc2c(cc1-c1c(C)noc1C)[nH]c1nc(N)nc(Nc3c4c(nn3C)CCC4)c12 [Cpd. No. 3, 7-(3,5-dimethylisoxazol-4-yl)-6-methoxy-N4-(2-methyl-2,4,5,6-tetrahydrocyclopenta[c]pyrazol-3-yl)-9H-pyrimido[4,5-b]indole-2,4-diamine]
- IC50 (recombinant BRD4 BD1): 3.5 nM
- IC50 (LNCaP cells): 67 nM
- IC50 (recombinant BRD4 BD2): 1.6 nM
- IC50 (MDA-MB-231 cells): 18 nM

Structure (SMILES): CCn1nc2c(c1Nc1nc(N)nc3[nH]c4cc(-c5c(C)noc5C)c(OC)cc4c13)CCC2 [Cpd. No. 4, 7-(3,5-dimethylisoxazol-4-yl)-N4-(2-ethyl-2,4,5,6-tetrahydrocyclopenta[c]pyrazol-3-yl)-6-methoxy-9H-pyrimido[4,5-b]indole-2,4-diamine]
- IC50 (recombinant BRD4 BD1): 1 nM
- IC50 (LNCaP cells): 20 nM
- IC50 (recombinant BRD4 BD2): 2.5 nM
- IC50 (MDA-MB-231 cells): 6 nM

Structure (SMILES): COCc1nc(Nc2c3c(nn2C(C)C)CCC3)c2c(n1)[nH]c1cc(-c3c(C)noc3C)c(OC)cc12 [Cpd. No. 6, 7-(3,5-dimethylisoxazol-4-yl)-N-(2-isopropyl-2,4,5,6-tetrahydrocyclopenta[c]pyrazol-3-yl)-6-methoxy-2-(methoxymethyl)-9H-pyrimido[4,5-b]indol-4-amine]
- IC50 (recombinant BRD4 BD1): 3.6 nM
- IC50 (MV4-11 cells): 4 nM
- IC50 (recombinant BRD4 BD2): 2.9 nM
- IC50 (MDA-MB-231 cells): 6 nM

Structure (SMILES): COCc1nc(Nc2cc(C3CC3)nn2C(C)C)c2c(n1)[nH]c1cc(-c3c(C)noc3C)c(OC)cc12 [Cpd. No. 7, N-(3-cyclopropyl-1-isopropyl-1H-pyrazol-5-yl)-7-(3,5-dimethylisoxazol-4-yl)-6-methoxy-2-(methoxymethyl)-9H-pyrimido[4,5-b]indol-4-amine]
- IC50 (recombinant BRD4 BD1): 3.9 nM
- IC50 (MV4-11 cells): 3 nM
- IC50 (recombinant BRD4 BD2): 2.1 nM
- IC50 (MDA-MB-231 cells): 6 nM

Structure (SMILES): COc1cc2c(cc1-n1c(C)nnc1C)[nH]c1ncnc(Nc3cc(C4CC4)nn3C)c12 [Cpd. No. 8, N-(3-Cyclopropyl-1-methyl-1H-pyrazol-5-yl)-7-(3,5-dimethyl-4H-1,2,4-triazol-4-yl)-6-methoxy-9H-pyrimido[4,5-b]indol-4-amine]
- IC50 (recombinant BRD4 BD1): 652 nM
- IC50 (recombinant BRD4 BD2): 1300 nM
- IC50 (MDA-MB-231 cells): > 1000 nM

Structure (SMILES): COc1cc2c(cc1-c1c(C)noc1C)[nH]c1nc(C)nc(Nc3cc(C4CC4)nn3-c3ccncc3)c12 [Cpd. No. 9, N-(3-Cyclopropyl-1-(pyridin-4-yl)-1H-pyrazol-5-yl)-7-(3,5-dimethylisoxazol-4-yl)-6-methoxy-2-methyl-9H-pyrimido[4,5-b]indol-4-amine]
- IC50 (recombinant BRD4 BD1): 22.6 nM
- IC50 (recombinant BRD4 BD2): 19 nM
- IC50 (MDA-MB-231 cells): 66 nM

The remaining lines, values ahead:

- IC50 (recombinant BRD4 BD1): 54 nM
- IC50 (recombinant BRD4 BD2): 75.2 nM
Structure (SMILES): COc1cc2c(cc1-c1c(C)noc1C)[nH]c1nc(C)nc(Nc3cc(C4CC4)nn3-c3ccc(C(=O)O)cc3)c12 [Cpd. No. 10, 4-(3-Cyclopropyl-5-((7-(3,5-dimethylisoxazol-4-yl)-6-methoxy-2-methyl-9H-pyrimido[4,5-b]indol-4-yl)amino)-1H-pyrazol-1-yl)benzoic acid]

- IC50 (recombinant BRD4 BD1): 103 nM
- IC50 (recombinant BRD4 BD2): 91.5 nM
Structure (SMILES): COc1cc2c(cc1-c1c(C)n[nH]c1C)[nH]c1ncnc(Nc3cc(C4CC4)nn3C)c12 [Cpd. No. 11, N-(3-cyclopropyl-1-methyl-1H-pyrazol-5-yl)-7-(3,5-dimethyl-1H-pyrazol-4-yl)-6-methoxy-9H-pyrimido[4,5-b]indol-4-amine]

- IC50 (recombinant BRD4 BD1): 18.2 nM
- IC50 (recombinant BRD4 BD2): 12.1 nM
Structure (SMILES): COc1cc2c(cc1-c1c(C)noc1C)[nH]c1nc(C)nc(Nc3cc(C4CC4)nn3-c3cnn(C)c3)c12 [Cpd. No. 12, N-(3-Cyclopropyl-1′-methyl-1′H-[1,4′-bipyrazol]-5-yl)-7-(3,5-dimethylisoxazol-4-yl)-6-methoxy-2-methyl-9H-pyrimido[4,5-b]indol-4-amine]

- IC50 (recombinant BRD4 BD1): 59.7 nM
- IC50 (recombinant BRD4 BD2): 34.3 nM
Structure (SMILES): COc1cc2c(cc1-c1c(C)noc1C)[nH]c1nc(C)nc(Nc3cc(C4CC4)n(-c4cnn(C)c4)n3)c12 [Cpd. No. 13, N-(5-Cyclopropyl-1′-methyl-1′H-[1,4′-bipyrazol]-3-yl)-7-(3,5-dimethylisoxazol-4-yl)-6-methoxy-2-methyl-9H-pyrimido[4,5-b]indol-4-amine]

- IC50 (recombinant BRD4 BD1): 141 nM
- IC50 (recombinant BRD4 BD2): 19.7 nM
Structure (SMILES): COc1cc2c(cc1-c1c(C)noc1C)[nH]c1nc(C)nc(Nc3cc(C4CC4)nn3-c3cn(C)cn3)c12 [Cpd. No. 14, N-(3-Cyclopropyl-1-(1-methyl-1H-imidazol-4-yl)-1H-pyrazol-5-yl)-7-(3,5-dimethylisoxazol-4-yl)-6-methoxy-2-methyl-9H-pyrimido[4,5-b]indol-4-amine]

- IC50 (recombinant BRD4 BD1): 131 nM
- IC50 (recombinant BRD4 BD2): 132 nM
- IC50 (MDA-MB-231 cells): 1400 nM
Structure (SMILES): COc1cc2c(cc1-n1c(C)nnc1C)[nH]c1nc(C)nc(Nc3cc(C4CC4)nn3C)c12 [Cpd. No. 15, N-(3-cyclopropyl-1-methyl-1H-pyrazol-5-yl)-7-(3,5-dimethyl-4H-1,2,4-triazol-4-yl)-6-methoxy-2-methyl-9H-pyrimido[4,5-b]indol-4-amine]

- IC50 (recombinant BRD4 BD1): > 1000 nM
- IC50 (recombinant BRD4 BD2): > 1000 nM
Structure (SMILES): COc1cc2c(cc1-c1c(C)nn(C)c1C)[nH]c1ncnc(Nc3cc(C4CC4)nn3C)c12 [Cpd. No. 21, N-(3-Cyclopropyl-1-methyl-1H-pyrazol-5-yl)-6-methoxy-7-(1,3,5-trimethyl-1H-pyrazol-4-yl)-9H-pyrimido[4,5-b]indol-4-amine]
